The results in this text go back to patent publication US8829190B2, “Triazolopyridines as phosphodiesterase inhibitors for treatment of dermal diseases” (Leo Pharma A/S, priority 2007, dated 2014).

One experiment addresses Human recombinant PDE4 (Homo sapiens (Human), UniProt Q08499). As to the kind of experiment: PDE4 assay (SPA, cAMP cleavage). Particulars: human recombinant PDE4, 1 hour incubation, cAMP 1×10^-5M. It counts as biochemical. The method, then:
At the end of the incubation, the cleavage of the substrate was evaluated by the binding of the AMP product to SPA beads, which generate chemo luminescence when bound to the radioactive tracer. The AMP product inhibited the binding of the radioactive tracer to the beads, and the luminescent signal was competed.

Experiment [1] has as its system Human peripheral blood mononuclear cells (PBMC). The experiment in a line: TNFα release in LPS-stimulated PBMC. It counts as cell-based. Conditions: 30 minutes pre-incubation, lipopolysaccharide stimulation 18 hours, read-out: TNFa IC50. The method, then: Human peripheral blood mononuclear cells (PBMC) were isolated from buffy coats. […] The PBMC were suspended in RPMI1640 with 2% foetal calf serum (FCS), pen/strep and 2 mM L-glutamine at a concentration of 5×105 c/ml. The cells were pre-incubated for 30 minutes with the test compounds in 96 well tissue culture plates and stimulated for 18 hours with lipopolysaccharide […] (Sigma). The level of TNFα was measured in the culture supernatant by enzyme immuno assays using primary and secondary biotinylated antibodies from R&D systems.

Human recombinant PDE4, sequence (Q08499 other isoform, or with tags, fused parts or gaps): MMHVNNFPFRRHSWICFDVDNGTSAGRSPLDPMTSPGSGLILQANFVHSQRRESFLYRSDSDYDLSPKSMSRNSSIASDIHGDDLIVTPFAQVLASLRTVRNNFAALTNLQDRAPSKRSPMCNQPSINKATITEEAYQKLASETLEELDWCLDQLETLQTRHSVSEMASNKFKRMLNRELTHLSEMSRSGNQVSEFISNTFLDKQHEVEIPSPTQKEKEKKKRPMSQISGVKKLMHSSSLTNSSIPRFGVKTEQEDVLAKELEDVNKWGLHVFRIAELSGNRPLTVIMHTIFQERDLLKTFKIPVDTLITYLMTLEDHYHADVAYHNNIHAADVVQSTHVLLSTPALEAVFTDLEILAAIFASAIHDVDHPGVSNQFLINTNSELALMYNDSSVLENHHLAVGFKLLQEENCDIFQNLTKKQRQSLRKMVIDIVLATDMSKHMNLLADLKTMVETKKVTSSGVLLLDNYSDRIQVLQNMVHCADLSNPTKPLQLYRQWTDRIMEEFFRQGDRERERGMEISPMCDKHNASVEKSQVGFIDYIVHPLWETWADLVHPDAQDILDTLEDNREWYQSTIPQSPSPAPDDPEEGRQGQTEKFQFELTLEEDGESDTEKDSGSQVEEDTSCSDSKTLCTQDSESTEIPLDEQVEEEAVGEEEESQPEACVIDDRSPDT

For orientation: IC50 means the concentration that gives 50% inhibition. Take `COc1ccc(C(=O)Cc2c(Cl)cncc2Cl)n2nc(COCc3ccccc3)nc12` [Compound 104, 1-(2-Benzyloxymethyl-8-methoxy-[1,2,4]triazolo[1,5-a]pyridin-5-yl)-2-(3,5-dichloro-pyridin-4-yl)-ethanone]: the IC50 at Human recombinant PDE4 is 26 nM; in experiment [1], 66 nM.
Take `COc1ccc(C(=O)Cc2c(Cl)cncc2Cl)n2nc(C3(C(=O)NCC(C)(C)C)CC3)nc12` [Compound 115, 1-{5-[2-(3,5-Dichloro-pyridin-4-yl)-acetyl]-8-methoxy-[1,2,4]triazolo[1,5-a]pyridin-2-yl}-cyclopropanecarboxylic acid (2,2-dimethyl-propyl)-amide]: the IC50 on Human recombinant PDE4 came to 0.2 nM.
For `COc1ccc(C(=O)Cc2ccnc(C#N)c2)n2nc(C3(CO)CC3)nc12` [Compound 125, 4-{2-[2-(1-Hydroxymethyl-cyclopropyl)-8-methoxy-[1,2,4]triazolo[1,5-a]pyridin-5-yl]-2-oxo-ethyl}-pyridine-2-carbonitrile], the IC50 at Human recombinant PDE4 came to 3100 nM; in experiment [1], 4800 nM.
`COc1ccc(C(=O)Cc2c(Cl)cncc2Cl)n2nc(C3(C(=O)N4CCOCC4)CC3)nc12` [Compound 109, 2-(3,5-Dichloro-pyridin-4-yl)-1-{8-methoxy-2-[1-(morpholine-4-carbonyl)-cyclopropyl]-[1,2,4]triazolo[1,5-a]pyridin-5-yl}-ethanone]: the IC50 on Human recombinant PDE4 is 24 nM; in experiment [1] it was 29 nM.
Turning to `COc1ccc(C(=O)Cc2c(Cl)c[n+]([O-])cc2Cl)n2nc(C3CC3)nc12` [Compound 128, 1-(2-Cyclopropyl-8-methoxy-[1,2,4]triazolo[1,5-a]pyridin-5-yl)-2-(3,5-dichloro-1-oxy-pyridin-4-yl)-ethanone], the IC50 in experiment [1] worked out at 5 nM.
In the case of `COc1ccc(C(=O)Cc2c(Cl)cncc2Cl)n2nc(C3(C(=O)O)CC3)nc12` [Compound 108, 1-{5-[2-(3,5-Dichloro-pyridin-4-yl)-acetyl]-8-methoxy-[1,2,4]triazolo[1,5-a]pyridin-2-yl}-cyclopropanecarboxylic acid], the IC50 at Human recombinant PDE4 was found to be 55 nM.
Turning to `COc1ccc(C(=O)Cc2ccncc2)n2nc(C3(CO)CC3)nc12` [Compound 122, 1-[2-(1-Hydroxymethyl-cyclopropyl)-8-methoxy-[1,2,4]triazolo[1,5-a]pyridin-5-yl]-2-pyridin-4-yl-ethanone], the figures for the IC50 (on Human recombinant PDE4; in experiment [1]) were 261 nM and 139 nM, respectively.
On to `COc1ccc(C(=O)Cc2c(Cl)cncc2Cl)n2nc(C3(C(=O)NCc4cccnc4)CC3)nc12` [Compound 113, 1-{5-[2-(3,5-Dichloro-pyridin-4-yl)-acetyl]-8-methoxy-[1,2,4]triazolo[1,5-a]pyridin-2-yl}-cyclopropanecarboxylic acid (pyridin-3-ylmethyl)-amide], for which the IC50 was found to be 0.7 nM on Human recombinant PDE4 and 0.5 nM in experiment [1].
The matching figures for `COc1ccc(C(=O)Cc2c(Cl)cncc2Cl)n2nc(C3(CO)CC3)nc12` [Compound 106, 2-(3,5-Dichloro-pyridin-4-yl)-1-[2-(1-hydroxymethyl-cyclopropyl)-8-methoxy-[1,2,4]triazolo[1,5-a]pyridin-5-yl]-ethanone]: 4 nM and 5 nM.
On the same counts, the results for `COc1ccc(C(=O)Cc2c(Cl)cncc2Cl)n2nc(C3(C(=O)NCc4ccccn4)CC3)nc12` [Compound 112, 1-{5-[2-(3,5-Dichloro-pyridin-4-yl)-acetyl]-8-methoxy-[1,2,4]triazolo[1,5-a]pyridin-2-yl}-cyclopropanecarboxylic acid (pyridin-2-ylmethyl)-amide] are 1 nM and 0.6 nM.
As to `COc1ccc(C(=O)Cc2ccnc3ccccc23)n2nc(C3(CO)CC3)nc12` [Compound 121, 1-[2-(1-Hydroxymethyl-cyclopropyl)-8-methoxy-[1,2,4]triazolo[1,5-a]pyridin-5-yl]-2-quinolin-4-yl-ethanone], the IC50 at Human recombinant PDE4 worked out at 3600 nM; in experiment [1] it was 2100 nM.
The matching figures for `COc1ccc(C(=O)Cc2c(Cl)cncc2Cl)n2nc(C)nc12` [Compound 107, 2-(3,5-Dichloro-pyridin-4-yl)-1-(8-methoxy-2-methyl-[1,2,4]triazolo[1,5-a]pyridin-5-yl)-ethanone]: 45 nM and 117 nM.
The matching figures for `COc1ccc(C(=O)Cc2nccnc2Cl)n2nc(C3(CO)CC3)nc12` [Compound 126, 2-(3-Chloro-pyrazin-2-yl)-1-[2-(1-hydroxymethyl-cyclopropyl)-8-methoxy-[1,2,4]triazolo[1,5-a]pyridin-5-yl]-ethanone]: 548 nM and 712 nM.
On the same counts, the results for `COc1ccc(C(=O)Cc2c(Cl)cncc2Cl)n2nc(CO)nc12` [Compound 105, 2-(3,5-Dichloro-pyridin-4-yl)-1-(2-hydroxymethyl-8-methoxy-[1,2,4]triazolo[1,5-a]pyridin-5-yl)-ethanone] are 305 nM and 603 nM.
Take `COc1ccc(C(=O)Cc2c(Cl)cncc2Cl)n2nc(-c3ccco3)nc12` [Compound 103, 2-(3,5-Dichloro-pyridin-4-yl)-1-(2-furan-2-yl-8-methoxy-[1,2,4]triazolo[1,5-a]pyridin-5-yl)-ethanone]: the IC50 on Human recombinant PDE4 was 7 nM; in experiment [1], 27 nM.
For `COc1ccc(C(=O)Cc2c(Cl)cncc2Cl)n2nc(C3CC3)nc12` [Compound 101, 1-(2-cyclopropyl-8-methoxy-[1,2,4]triazolo[1,5-a]pyridin-5-yl)-2-(3,5-dichloro-pyridin-4-yl)-ethanone], the IC50 was 2 nM on Human recombinant PDE4 and 3 nM in experiment [1].
On to `COc1ccc(C(=O)Cc2ccccc2Cl)n2nc(C3CC3)nc12` [Compound 127, 2-(2-Chloro-phenyl)-1-(2-cyclopropyl-8-methoxy-[1,2,4]triazolo[1,5-a]pyridin-5-yl)-ethanone], for which the IC50 in experiment [1] is 105 nM.
Turning to `COc1ccc(C(=O)Cc2c(Cl)cncc2Cl)n2nc(C3(C(N)=O)CC3)nc12` [Compound 118, 1-{5-[2-(3,5-Dichloro-pyridin-4-yl)-acetyl]-8-methoxy-[1,2,4]triazolo[1,5-a]pyridin-2-yl}-cyclopropanecarboxylic acid amide], the results for the IC50 (on Human recombinant PDE4; in experiment [1]) were 3 nM and 2 nM, respectively.
As for `COc1ccc(C(=O)Cc2c(Cl)cncc2Cl)n2nc(C3(CNCc4ccccc4)CC3)nc12` [Compound 119, 1-{2-[1-(Benzylamino-methyl)-cyclopropyl]-8-methoxy-[1,2,4]triazolo[1,5-a]pyridin-5-yl}-2-(3,5-dichloro-pyridin-4-yl)-ethanone], the IC50 came to 8 nM on Human recombinant PDE4 and 13 nM in experiment [1].
The matching figures for `COc1ccc(C(=O)Cc2c(Cl)cncc2Cl)n2nc(C3(C(=O)NCc4ccccc4)CC3)nc12` [Compound 110, 1-{5-[2-(3,5-Dichloro-pyridin-4-yl)-acetyl]-8-methoxy-[1,2,4]triazolo[1,5-a]pyridin-2-yl}-cyclopropanecarboxylic acid benzylamide]: 0.5 nM and 0.7 nM.
For `COc1ccc(C(=O)Cc2ccncc2Br)n2nc(C3(CO)CC3)nc12` [Compound 124, 2-(3-Bromo-pyridin-4-yl)-1-[2-(1-hydroxymethyl-cyclopropyl)-8-methoxy-[1,2,4]triazolo[1,5-a]pyridin-5-yl]-ethanone], the results for the IC50 (on Human recombinant PDE4; in experiment [1]) were 52 nM and 115 nM, respectively.
Turning to `COc1ccc(C(=O)Cc2c(Br)cncc2Br)n2nc(C3(CO)CC3)nc12` [Compound 123, 2-(3,5-Dibromo-pyridin-4-yl)-1-[2-(1-hydroxymethyl-cyclopropyl)-8-methoxy-[1,2,4]triazolo[1,5-a]pyridin-5-yl]-ethanone], the IC50 on Human recombinant PDE4 stood at 68 nM; in experiment [1] it was 15 nM.
Take `COc1ccc(C(=O)Cc2c(Cl)cncc2Cl)n2nc(C3(C(=O)NC4CCCC4)CC3)nc12` [Compound 116, 1-{5-[2-(3,5-Dichloro-pyridin-4-yl)-acetyl]-8-methoxy-[1,2,4]triazolo[1,5-a]pyridin-2-yl}-cyclopropanecarboxylic acid cyclopentylamide]: the IC50 on Human recombinant PDE4 came out at 0.1 nM.
`COc1ccc(C(=O)Cc2c(Cl)cncc2Cl)n2nc(C3(C(=O)NCc4ccncc4)CC3)nc12` [Compound 114, 1-{5-[2-(3,5-Dichloro-pyridin-4-yl)-acetyl]-8-methoxy-[1,2,4]triazolo[1,5-a]pyridin-2-yl}-cyclopropanecarboxylic acid (pyridin-4-ylmethyl)-amide]: the values for the IC50 (on Human recombinant PDE4; in experiment [1]) were 0.4 nM and 0.2 nM, respectively.
On to `COc1ccc(C(=O)Cc2c(Cl)cncc2Cl)n2ncnc12` [Compound 102, 2-(3,5-Dichloro-pyridin-4-yl)-1-(8-methoxy-[1,2,4]triazolo[1,5-a]pyridin-5-yl)-ethanone], for which the IC50 at Human recombinant PDE4 turned out to be 134 nM; in experiment [1], 291 nM.
The matching figures for `COc1ccc(C(=O)Cc2cnccn2)n2nc(C3(CO)CC3)nc12` [Compound 120, 1-[2-(1-Hydroxymethyl-cyclopropyl)-8-methoxy-[1,2,4]triazolo[1,5-a]pyridin-5-yl]-2-pyrazin-2-yl-ethanone]: 2500 nM and 2200 nM.
